Test results reported in US8101649B2, “N-acylhydrazone derivatives useful as modulators of nicotinic acetylcholine receptors” (Neurosearch A/S, priority 2007, dated 2012).

Key:
[1] = biological target: T1, wild-type nAChR α7 receptors (Homo sapiens, UniProt P36544); experiment: Positive modulation of acetylcholine-induced currents at nAChR α7 receptors expressed in Xenopus laevis oocytes (two-electrode voltage clamp); type: cell-based
T1 construct: expressed in transfected cells; host or cells: Xenopus laevis oocytes
Method: In this example the positive modulation of wild-type nAChR α7 receptors by Compound 3 (FIGS. 1A and 1B) was determined using nAChR α7 receptors heterologously expressed in Xenopus laevis oocytes.
The electrical current through the nAChR α7 channel was measured using conventional two-electrode voltage clamp and nAChR α7 currents were activated by applying pulses of agonist-containing solution onto the nAChR α7 expressing oocyte.
In brief, the oocytes were placed in a recording chambers and continuously superfused with an Oocyte Ringer (OR) solution containing 90 mM NaCl, 2.5 mM KCl, 2.5 mM CaCl2, 1 mM MgCl2 and 5 mM HEPES (pH adjusted to 7.4). The oocytes were clamped at −60 mV and currents were induced by applying 20 s pulses of 100 μM acetylcholine dissolved in OR. The intervals between the acetylcholine applications were 5 minutes, during which the oocytes were washed with OR. The first three applications were control applications to insure a constant response level of 100 μM acetylcholine.
The positive modulation in the presence of Compound 3 was calculated as (test-control)/control*100% and the concentration response curve for this positive modulation was fitted to the sigmoidal logistic equation: I=Imax/(1+(EC50/[compound])^n), where Imax represents the maximal modulation of the control response, EC50 is the concentration causing a half maximal response, and n is the slope coefficient.

T1 sequence (P36544 23-502): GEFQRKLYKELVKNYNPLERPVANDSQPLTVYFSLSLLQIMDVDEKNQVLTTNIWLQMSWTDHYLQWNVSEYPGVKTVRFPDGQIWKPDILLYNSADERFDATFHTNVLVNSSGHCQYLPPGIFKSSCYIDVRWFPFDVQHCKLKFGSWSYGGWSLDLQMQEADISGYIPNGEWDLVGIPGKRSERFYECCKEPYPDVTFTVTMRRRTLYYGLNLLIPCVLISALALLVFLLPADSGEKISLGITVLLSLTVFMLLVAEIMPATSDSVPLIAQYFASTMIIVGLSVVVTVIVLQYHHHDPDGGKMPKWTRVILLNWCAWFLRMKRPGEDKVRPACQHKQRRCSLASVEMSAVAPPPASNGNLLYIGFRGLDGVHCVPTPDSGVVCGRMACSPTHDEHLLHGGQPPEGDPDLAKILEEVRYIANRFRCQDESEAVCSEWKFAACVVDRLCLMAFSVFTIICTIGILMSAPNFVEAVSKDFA

melting point	SMILES	other results
168.3 to 169.7 °C	COc1ccc(/C=N/NC(=O)CCc2c[nH]c3ccccc23)cc1 [Compound 3B, 3-(1H-Indol-3-yl)-propionic acid [1-(4-methoxy-phenyl)-meth-(E)-ylidene]-hydrazide]	–
201.5 to 202.5 °C	O=C(CCc1c[nH]c2ccccc12)N/N=C/c1ccc(Cl)cc1 [Compound 3G, 3-(1H-Indol-3-yl)-propionic acid [1-(4-chloro-phenyl)-meth-(E)-ylidene]-hydrazide]	–
145.5 to 148.1 °C	O=C(CCc1c[nH]c2ccccc12)N/N=C/c1ccsc1 [Compound 3D, 3-(1H-Indol-3-yl)-propionic acid [1-thiophen-3-yl-meth-(E)-ylidene]-hydrazide]	–
169.8 to 171.2 °C	O=C(CCc1c[nH]c2ccccc12)N/N=C/c1ccccc1 [Compound 3A, 3-(1H-Indol-3-yl)-propionic acid [1-phenyl-meth-(E)-ylidene]-hydrazide]	–
146.5 to 149.4 °C	O=C(CCc1c[nH]c2ccccc12)N/N=C/c1cccs1 [Compound 3F, 3-(1H-Indol-3-yl)-propionic acid [1-thiophen-2-yl-meth-(E)-ylidene]-hydrazide]	–
–	O=C(CCc1c[nH]c2ccccc12)N/N=C/c1ccc(F)cc1 [Compound 3, 3-(1H-Indol-3-yl)-propionic acid [1-(4-fluoro-phenyl)-meth-(E)-ylidene]-hydrazide]	Imax (maximal modulation of the acetylcholine control response) ([1]; 100 μM acetylcholine, (test-control)/control*100%, fitted to the sigmoidal logistic equation): 140%; EC50 ([1]; 100 μM acetylcholine, oocytes clamped at −60 mV, 0.01-31.6 μM compound applied 30 s before and during acetylcholine, read-out: EC50 (concentration causing a half maximal response) for positive modulation of acetylcholine responses): 4.1 µM; effect on acetylcholine-induced current amplitude ([1]; 0.01-31.6 μM compound with 100 μM acetylcholine): robust increase
119.3 to 120.2 °C	O=C(CCc1c[nH]c2ccccc12)N/N=C1\CCCc2ccccc21 [Compound 3L, 3-(1H-Indol-3-yl)-propionic acid [3,4-dihydro-2H-naphthalen-(1E)-ylidene]-hydrazide]	–
248.6 to 249.5 °C	CC1=C/C(=N/NC(=O)CCc2c[nH]c3ccccc23)c2ccccc2C1=O [Compound 3N, 3-(1H-Indol-3-yl)-propionic acid [3-methyl-4-oxo-4H-naphthalen-(1Z)-ylidene]-hydrazide]	–
132.8 to 134 °C	O=C(CCc1c[nH]c2ccc(F)cc12)N/N=C/c1ccccc1F [Compound 3J, 3-(5-Fluoro-1H-indol-3-yl)-propionic acid [1-(2-fluoro-phenyl)-meth-(E)-ylidene]-hydrazide]	–
118 to 123 °C	O=C(CCc1c[nH]c2ccccc12)N/N=C/c1ccccc1F [Compound 3E, 3-(1H-Indol-3-yl)-propionic acid [1-(2-fluoro-phenyl)-meth-(E)-ylidene]-hydrazide]	–
171.2 to 173.9 °C	O=C(CCc1c[nH]c2ccc(F)cc12)N/N=C/c1ccccc1 [Compound 3I, 3-(5-Fluoro-1H-indol-3-yl)-propionic acid [1-phenyl-meth-(E)-ylidene]-hydrazide]	–
213.8 to 215.3 °C	O=C(CCc1c[nH]c2ccc(F)cc12)N/N=C/c1ccc(F)cc1 [Compound 3M, 3-(5-Fluoro-1H-indol-3-yl)-propionic acid [1-(4-fluoro-phenyl)-meth-(E)-ylidene]-hydrazide]	–
156.2 to 158.2 °C	C/C(=N\NC(=O)CCc1c[nH]c2ccccc12)c1ccccc1 [Compound 3K, 3-(1H-Indol-3-yl)-propionic acid [1-phenyl-eth-(E)-ylidene]-hydrazide]	–
